In data set [1] the test system is organic cation transporters (TEA); organic anion transporters (ES). The following applies: bovine.
Data set [2] relates to organic cation transporters (OCT). In words: Inhibition study: effect of inhibitors on TEA permeation across BME-UV monolayer. The format is cell-based, bovine. The settings on record: inhibitor added to donor compartment.
Data set [3] concerns organic anion transporters (OAT). The experiment in a line: Inhibition study: effect of inhibitors on ES permeation across BME-UV monolayer. Type of data set: cell-based, bovine. The settings on record: inhibitor added to donor compartment.
Data set [4] has as its system monolayer of BME-UV cells.
For data set [5], the system named is mouse mammary epithelial monolayer. The settings on record: ref Toddywalla et al., 1997; cited from earlier work.
The subject of data set [6] is human mammary epithelial monolayer. The following applies: ref Kimura et al., 2006; cited from earlier work.
The conditions of data set [7]: bovine.
Setting [8] is: either direction (data not shown).

Structures can show the parent of a compound that is named as a salt.

In general, Papp refers to the rate of passage across a membrane or cell layer, normalised by area and donor concentration. A higher Papp goes with fast passage. In general, Papp A→B refers to how fast a substance crosses the layer from the apical side. The term Papp B→A denotes the apparent permeability from the basolateral to the apical side of a cell layer. In the case of `C[C@]12CC[C@@H]3c4ccc(OS(=O)(=O)O)cc4CC[C@H]3[C@@H]1CCC2=O` [ES, estrone sulfate], the Papp at 4 h in “in vitro” turned out to be 1220 ± 340 nm/s. In data set [1], the Papp A→B at 4 h, 100 µM stood at 6.6 ± 0.6 nm/s and the Papp B→A at 4 h, 100 µM worked out at 22 ± 1 nm/s.

In the case of `CCCN(CCC)S(=O)(=O)c1ccc(C(=O)O)cc1` [probenecid], the “effect of inhibitor on permeation rate constant of TEA” value in data set [2] (setting [8]) is “not changed significantly”. Also, the “decrease of permeation rate constant of ES by inhibitor” value in data set [3] (BL-to-Ap direction only) is given as “approximately 36%”.

Consider `CCN1C(=Cc2ccc3ccccc3[n+]2CC)C=Cc2ccccc21.[I-]` [cyanine, 1,1-Diethyl-2,2-cyanine iodide], for which the “decrease of permeation rate constant of TEA by inhibitor” value in data set [2] (BL-to-Ap direction only) was “approximately 49%”. For the same compound, in data set [3] (setting [8]), the “effect of inhibitor on permeation rate constant of ES” value is recorded as “not changed significantly”.

`CC[N+](CC)(CC)CC` [TEA, Tetraethylammonium bromide]: the Papp at 4 h in the data set “in vitro” was determined as 1610 ± 180 nm/s. The “permeation rate constant for TEA relative to ES, Ap-to-BL” value in data set [4] (Ap-to-BL direction) is 3 times. Moreover, the “permeation rate constant for TEA relative to ES, BL-to-Ap” value in data set [4] (BL-to-Ap direction) is given as 2 times. In data set [1], this compound had a Papp A→B at 4 h, 100 µM of 20 ± 0.2 nm/s and a Papp B→A at 4 h, 100 µM of 51 ± 4 nm/s.

`OC[C@@H](O)[C@@H](O)[C@H](O)[C@H](O)CO` [mannitol]: the Papp of mannitol was 19.4 nm/s in data set [5] and 26 nm/s in data set [6]. This compound gave a Papp at 4 h, 2 µM in data set [7] of 9.1 ± 4 nm/s.

These data come from publication PMC2747106 (Journal of veterinary pharmacology and therapeutics, 2009).
